From patent EP0586229A1, “3-Hydroxy-3-(subst-akyl)-pyrrolidines as 5-lipoxygenase inhibitors” (ZENECA LIMITED, priority 1992, dated 1994)

How the values were obtained:
5-LO [1] = molecular target: T1, 5-LO (Homo sapiens, UniProt P09917); test: Test a): in vitro heparinised human blood challenged with calcium ionophore A23187, radioimmunoassay of LTB₄; format: cell-based; settings: A23187 challenge, read-out: IC₅₀ against LTB₄ in test (a)
T1 construct: incubating a test compound with heparinised human blood, prior to challenge with the calcium ionophore A23187; endogenous in cells; host or cells: heparinised human whole blood (blood cells)
T1 sequence (P09917 1-674): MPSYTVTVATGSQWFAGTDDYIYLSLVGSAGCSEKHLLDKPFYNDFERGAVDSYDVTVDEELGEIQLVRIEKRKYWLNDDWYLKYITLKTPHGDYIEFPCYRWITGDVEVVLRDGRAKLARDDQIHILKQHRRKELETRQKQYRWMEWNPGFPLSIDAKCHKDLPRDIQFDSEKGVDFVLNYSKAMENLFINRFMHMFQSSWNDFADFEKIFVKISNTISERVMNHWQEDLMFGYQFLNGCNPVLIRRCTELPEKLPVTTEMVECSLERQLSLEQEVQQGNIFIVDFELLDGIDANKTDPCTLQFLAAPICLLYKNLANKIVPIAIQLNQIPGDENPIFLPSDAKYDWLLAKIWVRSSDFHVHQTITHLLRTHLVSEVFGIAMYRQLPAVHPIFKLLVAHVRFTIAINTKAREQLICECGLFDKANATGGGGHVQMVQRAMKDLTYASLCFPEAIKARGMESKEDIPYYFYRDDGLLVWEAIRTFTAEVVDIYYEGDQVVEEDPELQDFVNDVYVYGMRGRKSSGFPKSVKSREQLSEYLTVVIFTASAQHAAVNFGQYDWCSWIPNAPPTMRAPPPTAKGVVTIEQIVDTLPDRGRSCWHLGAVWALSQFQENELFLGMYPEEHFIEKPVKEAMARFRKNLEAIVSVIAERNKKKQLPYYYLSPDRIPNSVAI
From the text: As stated previously, the compounds of the formula I are inhibitors of the enzyme 5-LO. […] J. Pharmacol. 1985, 84, 34P) which involve the use of a protein-LTB₄ conjugate produced using the procedure of Young et alia (Prostaglandins, 1983, 26(4), 605-613). The effects of a test compound on the enzyme cyclooxygenase (which is involved in the alternative metabolic pathway for arachidonic acid and gives rise to prostaglandins, thromboxanes and related metabolites) may be measured at the same time using the specific radioimmunoassay for thromboxane B₂(TxB₂) described by Carey and Forder (see above). This test provides an indication of the effects of a test compound against 5-LO and also cyclooxygenase in the presence of blood cells and proteins. It permits the selectivity of the inhibitory effect on 5-LO or cyclooxygenase to be assessed. • b) An ex vivo assay system, which is a variation of test a) above, involving administration to a group of rats of a test compound (usually orally as the suspension produced when a solution of the test compound in dimethylsulphoxide is added to carboxymethylcellulose), blood collection, heparinisation, challenge with A23187 and radioimmunoassay of LTB₄ and TxB₂. This test provides an indication of the bioavailability of a test compound as an inhibitor of 5-LO or cyclooxygenase. • c) An in vivo system involving measuring the effects of a test compound administered orally against the liberation of LTB₄ induced by zymosan within an air pouch generated within the subcutaneous tissue of the back of male rats. The rats are anaesthetised and air pouches are formed by the injection of sterile air (20ml). A further injection of air (10ml) is similarly given after 3 days. At 6 days after the initial air injection the test compound is administered (usually orally as the suspension produced when a solution of the test compound in dimethylsulphoxide is added to hydroxypropylmethylcellulose), followed by the intrapouch injection of zymosan (1ml of a 1% suspension in physiological saline). After 3 hours the rats are killed, the air pouches are lavaged with physiological saline, and the specific radioimmunoassay described above is used to assay LTB₄ in the washings. This test provides an indication of inhibitory effects against 5-LO in an inflammatory milieu.

5-LO [2] = test: Test c): in vivo zymosan-induced LTB₄ liberation in subcutaneous air pouch; settings: oral, male rats, 3 hours
From the text: As stated previously, the compounds of the formula I are inhibitors of the enzyme 5-LO. […] J. Pharmacol. 1985, 84, 34P) which involve the use of a protein-LTB₄ conjugate produced using the procedure of Young et alia (Prostaglandins, 1983, 26(4), 605-613). The effects of a test compound on the enzyme cyclooxygenase (which is involved in the alternative metabolic pathway for arachidonic acid and gives rise to prostaglandins, thromboxanes and related metabolites) may be measured at the same time using the specific radioimmunoassay for thromboxane B₂(TxB₂) described by Carey and Forder (see above). This test provides an indication of the effects of a test compound against 5-LO and also cyclooxygenase in the presence of blood cells and proteins. It permits the selectivity of the inhibitory effect on 5-LO or cyclooxygenase to be assessed. • b) An ex vivo assay system, which is a variation of test a) above, involving administration to a group of rats of a test compound (usually orally as the suspension produced when a solution of the test compound in dimethylsulphoxide is added to carboxymethylcellulose), blood collection, heparinisation, challenge with A23187 and radioimmunoassay of LTB₄ and TxB₂. […]

Row | IC50 (5-LO [1]) [µM] | Structure (SMILES) | ED₅₀ versus LTB₄ in test (c) (5-LO [2])
1 | 0.21 | COC1(c2cccc(OCc3ccc4ccccc4c3)c2)CCN(C)C1 (stereo not shown) [Example 1, 3-methoxy-1-methyl-3-[3-(naphth-2-ylmethoxy)phenyl]pyrrolidine] | –
2 | 0.06 | C#CCN1CCC(OC)(c2cccc(OCc3ccc4ccccc4c3)c2)C1 (stereo not shown) [Example 4, 3-methoxy-3-[3-(naphth-2-ylmethoxy)phenyl]-1-(prop-2-ynyl)pyrrolidine] | –
3 | 0.09 | CCn1c(=O)ccc2cc(COc3cccc(C4(OC)CCN(CC(F)(F)F)C4)c3)ccc21 (stereo not shown) [Example 5, 3-[3-(1-ethyl-2-oxo-1,2-dihydroquinolin-6-ylmethoxy)phenyl]-3-methoxy-1-(2,2,2-trifluoroethyl)pyrrolidine] | –

Row | Structure (SMILES) | IC50 (5-LO [1]) [µM] | ED₅₀ versus LTB₄ in test (c) (5-LO [2])
4 | COC1(c2cc(F)cc(Sc3ccc4c(c3)CCC(=O)N4C)c2)CCN(CC(F)(F)F)C1 (stereo not shown) [Example 6, 3-[5-fluoro-3-(1-methyl-2-oxo-1,2,3,4-tetrahydroquinolin-6-ylthio)phenyl]-3-methoxy-1-(2,2,2-trifluoroethyl)pyrrolidine] | 0.03 | approximately 1.5 mg/kg
5 | COC1(c2cc(F)cc(Sc3ccc(C(C)=NO)cc3)c2)CCN(CC(F)(F)F)C1 (stereo not shown) [Example 32, 3-{5-fluoro-3-[4-(1-hydroxyiminoethyl)phenylthio]phenyl}-3-methoxy-1-(2,2,2-trifluoroethyl)pyrrolidine] | 0.04 | approximately 0.5 mg/kg
